Experimental data published in ChEMBL document CHEMBL1132075, “Enantio- and diastereocontrolled dopamine D1, D2, D3 and D4 receptor binding of N-(3-pyrrolidinylmethyl)benzamides synthesized from aspartic acid” (Bioorg Med Chem Lett, 1999).
pKi: −log10 of the molar value.

Experiments:
[1] = target: T1, D(4) dopamine receptor (Homo sapiens, UniProt P21917); test: Binding affinity towards human Dopamine receptor D4 by [3H]spiperone displacement.
T1 sequence (P21917 whole entry): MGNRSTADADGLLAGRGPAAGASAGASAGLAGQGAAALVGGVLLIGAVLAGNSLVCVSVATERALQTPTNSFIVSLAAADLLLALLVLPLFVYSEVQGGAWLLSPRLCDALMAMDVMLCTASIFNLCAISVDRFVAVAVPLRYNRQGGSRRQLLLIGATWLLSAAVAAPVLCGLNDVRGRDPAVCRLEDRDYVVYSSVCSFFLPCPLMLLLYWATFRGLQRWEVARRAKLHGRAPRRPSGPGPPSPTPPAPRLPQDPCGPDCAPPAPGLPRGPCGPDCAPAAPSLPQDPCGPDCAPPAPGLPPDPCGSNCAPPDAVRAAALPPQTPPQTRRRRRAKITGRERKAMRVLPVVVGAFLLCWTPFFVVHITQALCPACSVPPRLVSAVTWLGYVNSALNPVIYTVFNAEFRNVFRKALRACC

[2] = target: T2, D(2) dopamine receptor (Homo sapiens, UniProt P14416); test: Binding affinity towards human Dopamine receptor D2 (long) by [3H]-spiperone displacement.
[3] = target: D(1A) dopamine receptor (Bos taurus, UniProt Q95136); test: Binding affinity towards bovine dopamine D1 receptor by [3H]-SCH- 23390 displacement.
[4] = target: D(3) dopamine receptor (Homo sapiens, UniProt P35462); test: Binding affinity towards human dopamine D3 receptor by [3H]spiperone displacement.
[5] = target: T2, D(2) dopamine receptor; test: Binding affinity towards human Dopamine receptor D2 (short) by [3H]-spiperone displacement.

T2 sequence (P14416 whole entry): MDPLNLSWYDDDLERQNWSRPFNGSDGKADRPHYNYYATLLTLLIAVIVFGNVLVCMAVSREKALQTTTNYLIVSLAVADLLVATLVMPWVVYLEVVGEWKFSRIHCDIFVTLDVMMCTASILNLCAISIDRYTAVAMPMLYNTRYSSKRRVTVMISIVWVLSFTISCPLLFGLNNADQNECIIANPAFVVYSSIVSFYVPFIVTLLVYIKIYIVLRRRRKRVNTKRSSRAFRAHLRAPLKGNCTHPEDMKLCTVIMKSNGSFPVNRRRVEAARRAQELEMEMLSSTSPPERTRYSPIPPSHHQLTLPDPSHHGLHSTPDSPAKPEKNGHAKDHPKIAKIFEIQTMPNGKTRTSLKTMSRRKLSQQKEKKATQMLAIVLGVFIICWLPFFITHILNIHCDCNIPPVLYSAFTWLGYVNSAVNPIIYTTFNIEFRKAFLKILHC
Chain of D(3) dopamine receptor (P35462 whole entry): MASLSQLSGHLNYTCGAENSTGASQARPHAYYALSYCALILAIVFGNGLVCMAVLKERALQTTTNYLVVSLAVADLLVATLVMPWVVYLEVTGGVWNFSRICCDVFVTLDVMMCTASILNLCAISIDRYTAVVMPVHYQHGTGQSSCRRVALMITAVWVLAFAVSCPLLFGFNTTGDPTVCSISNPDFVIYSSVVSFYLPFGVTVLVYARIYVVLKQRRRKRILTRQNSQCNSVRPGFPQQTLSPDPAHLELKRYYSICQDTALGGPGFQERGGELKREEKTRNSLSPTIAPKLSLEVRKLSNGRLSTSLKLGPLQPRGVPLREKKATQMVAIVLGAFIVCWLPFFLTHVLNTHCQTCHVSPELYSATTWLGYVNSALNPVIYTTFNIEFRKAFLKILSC
Chain of D(1A) dopamine receptor (Q95136 whole entry): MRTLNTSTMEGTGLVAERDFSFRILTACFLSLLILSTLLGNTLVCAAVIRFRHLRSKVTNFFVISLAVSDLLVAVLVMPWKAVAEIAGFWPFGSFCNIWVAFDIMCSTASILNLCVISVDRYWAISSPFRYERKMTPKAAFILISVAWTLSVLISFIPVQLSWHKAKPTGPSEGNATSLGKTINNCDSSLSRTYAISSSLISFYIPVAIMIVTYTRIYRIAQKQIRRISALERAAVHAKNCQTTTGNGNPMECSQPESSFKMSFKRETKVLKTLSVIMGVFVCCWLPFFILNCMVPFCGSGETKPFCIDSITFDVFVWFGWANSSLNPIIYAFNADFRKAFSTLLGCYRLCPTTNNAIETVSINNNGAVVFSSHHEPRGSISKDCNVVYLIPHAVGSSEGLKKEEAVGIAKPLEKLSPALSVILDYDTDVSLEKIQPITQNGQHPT

Row | pKi [1] | pKi [2] | pKi [3] | pKi [4] | pKi [5] | SMILES
1 | 6.47 | 4.57 | 4.39 | 5.06 | 4.60 | COc1cc(NC(C)=O)c(Cl)cc1C(=O)NC[C@H]1CCN(Cc2ccccc2)C1
2 | 6.74 | 5.85 | 4.96 | 6.24 | 6.19 | COc1cc(N)c(Cl)cc1C(=O)NC[C@@H]1CCN(Cc2ccccc2)C1
3 | 6.89 | 7.27 | 5.48 | 6.57 | 7.62 | CCC[C@@H]1CN(Cc2ccccc2)C[C@H]1CNC(=O)c1cc(Cl)c(NC)cc1OC
4 | 6.85 | 6.09 | 4.96 | 5.66 | 6.27 | COc1cc(N)c(Cl)cc1C(=O)NC[C@H]1CCN(Cc2ccccc2)C1
5 | 6.60 | 4.72 | 4.46 | 5.57 | 4.68 | COc1cc(NC(C)=O)c(Cl)cc1C(=O)NC[C@@H]1CCN(Cc2ccccc2)C1
6 | 6.66 | 7.55 | 4.85 | 6.68 | 8.00 | CNc1cc(OC)c(C(=O)NC[C@@H]2CN(Cc3ccccc3)C[C@H]2C)cc1Cl
7 | 6.70 | 6.72 | 5.55 | 7.51 | 6.72 | CCC[C@@H]1CN(Cc2ccccc2)C[C@@H]1CNC(=O)c1cc(Cl)c(NC)cc1OC
8 | – | – | 4.30 | – | – | CCN1CCC[C@H]1CNC(=O)c1cc(S(N)(=O)=O)ccc1OC [LEVOSULPIRIDE]

More lines, now with the values behind:

Row | SMILES | pKi [1] | pKi [2] | pKi [3] | pKi [4] | pKi [5]
9 | CNc1cc(OC)c(C(=O)NC[C@H]2CCN(Cc3ccccc3)C2)cc1Cl | 7.64 | 6.96 | 5.01 | 6.44 | 7.07
10 | CCC[C@H]1CN(Cc2ccccc2)C[C@@H]1CNC(=O)c1cc(Cl)c(NC)cc1OC | 6.00 | 6.01 | 5.39 | 6.46 | 6.27
11 | COc1cc(N(C)C(C)=O)c(Cl)cc1C(=O)NC[C@@H]1CCN(Cc2ccccc2)C1 | 5.38 | 4.52 | 4.12 | 5.14 | 4.72
12 | CCC[C@H]1CN(Cc2ccccc2)C[C@H]1CNC(=O)c1cc(Cl)c(NC)cc1OC | 7.34 | 7.35 | 6.62 | 6.51 | 7.55
13 | CNc1cc(OC)c(C(=O)NC[C@H]2CN(Cc3ccccc3)C[C@H]2C)cc1Cl | 7.33 | 6.82 | 4.96 | 6.96 | 7.10
14 | CNc1cc(OC)c(C(=O)NC[C@@H]2CCN(Cc3ccccc3)C2)cc1Cl | 7.72 | 6.96 | 5.29 | 7.33 | 7.24
15 | COc1cc(N(C)C(C)=O)c(Cl)cc1C(=O)NC[C@H]1CCN(Cc2ccccc2)C1 | 5.15 | 4.42 | 4.06 | 4.96 | 4.55
16 | COc1ccc(Br)cc1C(=O)NC[C@@H]1CCN(Cc2ccccc2)C1 | 7.32 | 5.51 | 5.43 | 5.96 | 5.80
17 | CNc1cc(OC)c(C(=O)NC[C@@H]2CN(Cc3ccccc3)C[C@@H]2C)cc1Cl | 6.62 | 7.29 | 4.92 | 6.24 | 7.68
18 | CNc1cc(OC)c(C(=O)NC[C@H]2CN(Cc3ccccc3)C[C@@H]2C)cc1Cl | 6.82 | 6.48 | 4.70 | 6.49 | 6.92
19 | COc1ccc(Br)cc1C(=O)NC[C@H]1CCN(Cc2ccccc2)C1 | 7.34 | 5.70 | 5.28 | 5.68 | 5.82
